Measured values from US20080153758A1, “Compounds Which Inhibits Protein Prenylation E.G. Geranylgeransferse or Farnesyltransferase Inhibitors for Treating Parkinson's Disease” (priority 2004, published 2008).

Legend:
FTase = FTase (Homo sapiens, UniProt P49354+P49356); conditions: read-out: FTase IC50; cited from earlier work
GGTase I = GGTase I (Homo sapiens, UniProt P49354+P53609); conditions: read-out: GGTase I / PGGTase-I IC50; cited from earlier work
SH-SY5Y cells = experiment: MTT cell viability of 6-OHDA treated SH-SY5Y cells; format: cell-based, human
Experimental: To test whether inhibition of Ras farnesylation could protect SH-SY5Y cells against 6-OHDA induced oxidative stress, a Ras farnesyltransferase inhibitor, L-744,832, was used in 6-OHDA treated SH-SY5Y cells.
SH-SY5Y cells were plated in 24 well plates (ATGC, France) at the initial density of 3*10^5 cells/well. After 24 hours, cells were pretreated with L-744,832 for 6 hours at concentrations ranging from 20 nM to 40 μM. Then, 6-OHDA (Sigma) diluted in PBS was added to the wells at the concentration of 50 μM. After 17 h incubation, an MTT assay was conducted to reveal cell viability, which was measured as normalized optical densities values (treated cells/untreated control cells), where a value of 1 represents 100% neuronal survival and a value of 0.6 represents 60% survival.

[1] = cell-based assays (Law et al. 2000; Birkenkamp et al. 2004); cited from earlier work
mammary tumors = conditions: cited from earlier work

Row | SMILES | IC50 (FTase) | further results
1 | C[C@H]([C@H](C/C=C/c1nc2ccccc2o1)c1ccc2c(c1)OCO2)N(Cc1ccc2ccccc2c1)C(=O)[C@H]1OC(C(=O)O)(C(=O)O)O[C@@H]1C(=O)O [J-104,135] | 3.9 nM | 
2 | CSCC[C@H](NC(=O)c1ccc(NC[C@@H](N)CS)cc1)C(=O)O [FTI-249] | 50 nM | 
3 | CC(C)C[C@H](NC(=O)CN1C[C@H](N(C)C(=O)[C@H](N)CS)N=C(c2ccccc2)c2ccccc21)C(=O)O [BZA-4B] | 1.3 nM | 
4 | CSCC[C@H](NC(=O)[C@@H](NC(=O)[C@@H](NC(=O)CCP(=O)(O)C/C=C(\C)CC/C=C(\C)CCC=C(C)C)C(C)C)C(C)C)C(=O)O [BMS-186511] | 10 nM | 
5 | CCC(C)C(COC(Cc1ccccc1)C(=O)NC(CCS(C)(=O)=O)C(=O)O)NCC(N)CS [L-739,750] | 1.8 nM | 
6 | CSCC[C@H](NC(=O)CN1C[C@H](N(C)C(=O)[C@H](N)CS)N=C(c2ccccc2)c2ccccc21)C(=O)O [BZA-2B] | 0.85 nM | 
7 | COC(=O)[C@H](CCSC)N(C(=O)c1ccccc1)C1CCN(C(=O)[C@@H](N)CS)CC1 [Methyl N-benzoyl-N-(piperidin-4-yl-N-(R)-cysteinyl)-(S) methioninate] | 20 nM | 
8 | CC(C)C[C@H](NC(=O)c1ccc(NC[C@@H](N)CS)cc1-c1ccccc1)C(=O)O [GGTI-287] |  | IC50 (GGTase I): 5 nM
9 | C=C(CCC12OC(C(=O)O)C(O)(C(=O)O)C(C(=O)O)(O1)C(OC(=O)C=CC(C)CC(C)CC)C2O)C(OC(C)=O)C(C)Cc1ccccc1 [Zaragozic acid, L-erythro-L-Glycero-D-altro-7-trideculo-7,4-furanosonic acid, 2,7-anhydro-3,4-di-C-carboxy-8,9,10,12,13-pentadeoxy-10-methylene-12-(phenylmethyl)-,11-acetate 5-(4,6-dimethyl-2-octenoate), [5(2E,4S,6S),7S]] | 50 nM | 
10 | CSCC[C@@H](NC(=O)[C@H]1Cc2ccccc2CN1C(=O)[C@@H](NCCc1c[nH]cn1)C(C)C)C(=O)O (relative stereo) [BMS-193269, (R*)-N-[[1,2,3,4-Tetrahydro-2-[N-[2-(1H-imidazol-4-yl)ethyl]-L-valyl]-3-isoquinolinyl]carbonyl]-L-methionine] | 0.79 nM | 
11 | C[C@H]([C@H](C/C=C/c1nc2ccccc2o1)c1ccc2c(c1)OCO2)N(Cc1ccc2ccccc2c1)C(=O)[C@H]1OC(C(=O)O)(C(=O)O)O[C@@H]1C(=O)O [J-104,134] | 5 nM | 
12 | CC(=O)N(c1ccc(C)cc1)c1ccc(NC(=O)CCCCc2ccccc2)cc1C(=O)c1ccccc1 | 390 nM | 
13 | Cn1cncc1C(N)(c1ccc(Cl)cc1)c1ccc2c(c1)c(-c1cccc(Cl)c1)cc(=O)n2C (stereo not drawn) [R115777, 6-[Amino(4-chlorophenyl)-1-methyl-1H-imidazol-5-ylmethyl]-4-(3-chlorophenyl)-1-methyl-2(1H)-quinolinone] | 0.86 nM | 
14 | COC(=O)[C@H](CCSC)NC(=O)c1ccc(NC[C@@H](N)CS)cc1-c1ccccc1 [FTI-277] | 100 nM | 
15 | CSCC[C@H](NC(=O)c1ccc(NC(=O)[C@@H](N)CS)cc1)C(=O)O [FTI-232, Cys-4-ABA-Met] | 50 nM | 
16 | CC[C@H](C)[C@@H](CO[C@@H](Cc1ccccc1)C(=O)N[C@@H](CCS(C)(=O)=O)C(=O)OC(C)C)NC[C@@H](N)CS [L-744,832, (2S)-2-[[(2S)-2-[[(2S,3S)-2-[[(2R)-2-Amino-3-mercaptopropyl]amino]-3-methylpentyl]oxy]-1-oxo-3-phenylpropyl]amino]-4-(methylsulfonyl)-butanoic acid 1-methylethyl ester] |  | toxicity for SH-SY5Y cells (SH-SY5Y cells; SH-SY5Y cells): non toxic; survival ratio (SH-SY5Y cells; SH-SY5Y, 6 h pretreatment with L-744,832 (20 nM to 40 μM), 6-OHDA 50 μM, 17 h, MTT, control 38%): 53%; protective effect against cell death induced by ROS (in words) (SH-SY5Y cells; overnight treatment with 6-OHDA, FIG. 1): significant protective effect; protective effect (SH-SY5Y cells; overnight treatment with 6-OHDA, SH-SY5Y, MTT): 24%; reported active concentration [1]: 25 to 60 µM; p70s6k phosphorylation in mammary tumors (mammary tumors; in vivo): inhibits; tumor regression (mammary tumors; transgenic mice): induces tumor regression
17 | O=[N+]([O-])[C@H]1C(c2ccccc2Br)CCN(Cc2cccnc2)[C@@H]1c1ccc(O)c(O)c1 (single isomer, unassigned; (+)) [(+)-4-(2-Bromophenyl)-2-(3,4-dihydroxyphenyl)-3-nitro-1-(3-pyridylmethyl)piperidine] | 1.9 nM | 
18 | CSCCC(NC(=O)C(C=CC(C=CC(N)CS)C(C)C)Cc1ccccc1)C(=O)O (stereo not drawn) [B956] | 11 nM | 
